Experimental data: US20240190821A1, “SULFONAMIDE SUBSTITUTED N-(1H-INDOL-7-YL)BENZENESULFONAMIDES AND USES THEREOF” (Triana Biomedicines, Inc., priority 2021, published 2024)

Tests used:
[1] = molecular target: T1, DCAF15-RBM39 ternary complex (Homo sapiens, UniProt Q14498+Q66K64); experiment: Compound-induced DCAF15-RBM39 ternary complex formation, AlphaLISA; format: biochemical; conditions: AlphaLISA, His-tagged DCAF15 complex and biotin-carrying RBM39; read-out: Ternary-RBM39 (RRM2) EC50
T1 construct: (RRM2)
T1 sequence (Q66K64 whole entry): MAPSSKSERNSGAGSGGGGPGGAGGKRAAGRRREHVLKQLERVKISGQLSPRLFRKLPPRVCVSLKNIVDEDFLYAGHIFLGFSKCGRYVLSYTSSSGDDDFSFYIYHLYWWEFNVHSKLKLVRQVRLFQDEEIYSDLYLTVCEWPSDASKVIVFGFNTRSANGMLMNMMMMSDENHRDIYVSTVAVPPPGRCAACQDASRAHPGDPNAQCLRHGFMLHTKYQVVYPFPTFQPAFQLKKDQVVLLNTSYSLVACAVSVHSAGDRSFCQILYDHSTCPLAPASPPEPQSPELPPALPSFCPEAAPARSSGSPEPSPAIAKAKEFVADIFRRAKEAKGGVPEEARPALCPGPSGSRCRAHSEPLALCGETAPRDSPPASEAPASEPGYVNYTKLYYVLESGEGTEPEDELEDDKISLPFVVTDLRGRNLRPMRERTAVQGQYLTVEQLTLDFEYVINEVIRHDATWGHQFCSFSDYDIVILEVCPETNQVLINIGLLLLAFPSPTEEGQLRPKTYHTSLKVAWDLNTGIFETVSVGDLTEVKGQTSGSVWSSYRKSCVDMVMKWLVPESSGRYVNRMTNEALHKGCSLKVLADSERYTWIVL
T1 sequence (Q14498 250-328 limits assumed): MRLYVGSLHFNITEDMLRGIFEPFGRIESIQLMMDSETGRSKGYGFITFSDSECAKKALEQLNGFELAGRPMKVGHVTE
T1 sequence (Q16531 whole entry partner): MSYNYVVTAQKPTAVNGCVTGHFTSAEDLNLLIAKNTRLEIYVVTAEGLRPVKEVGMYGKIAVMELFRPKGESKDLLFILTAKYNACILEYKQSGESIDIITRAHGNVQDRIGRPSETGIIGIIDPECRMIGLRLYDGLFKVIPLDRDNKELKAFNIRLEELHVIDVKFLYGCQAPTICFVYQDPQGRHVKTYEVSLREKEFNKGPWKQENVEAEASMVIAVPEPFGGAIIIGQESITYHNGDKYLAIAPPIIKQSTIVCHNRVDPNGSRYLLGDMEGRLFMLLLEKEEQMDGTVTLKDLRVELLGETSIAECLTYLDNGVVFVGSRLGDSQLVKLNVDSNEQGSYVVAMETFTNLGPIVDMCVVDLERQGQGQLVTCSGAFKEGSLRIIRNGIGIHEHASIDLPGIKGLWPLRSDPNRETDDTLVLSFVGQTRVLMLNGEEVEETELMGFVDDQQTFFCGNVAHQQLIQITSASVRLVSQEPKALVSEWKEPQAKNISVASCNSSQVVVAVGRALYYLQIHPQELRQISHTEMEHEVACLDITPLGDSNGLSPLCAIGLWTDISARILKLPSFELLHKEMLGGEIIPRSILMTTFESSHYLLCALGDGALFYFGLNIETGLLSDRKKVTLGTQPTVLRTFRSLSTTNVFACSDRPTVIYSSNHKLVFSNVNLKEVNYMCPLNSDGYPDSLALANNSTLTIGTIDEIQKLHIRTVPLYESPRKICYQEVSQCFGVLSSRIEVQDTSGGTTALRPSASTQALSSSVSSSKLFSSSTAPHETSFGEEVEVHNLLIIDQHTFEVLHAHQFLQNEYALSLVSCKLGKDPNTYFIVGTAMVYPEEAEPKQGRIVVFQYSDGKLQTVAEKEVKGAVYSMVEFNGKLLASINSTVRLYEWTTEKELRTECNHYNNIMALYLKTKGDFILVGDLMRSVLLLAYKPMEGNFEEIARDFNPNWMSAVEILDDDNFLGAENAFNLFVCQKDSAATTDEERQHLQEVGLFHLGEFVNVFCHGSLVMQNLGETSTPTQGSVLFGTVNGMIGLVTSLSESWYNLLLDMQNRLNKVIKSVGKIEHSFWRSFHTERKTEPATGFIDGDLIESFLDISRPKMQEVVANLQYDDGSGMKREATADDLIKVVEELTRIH
Experimental: Compound-induced DCAF15-RBM39 ternary complex formation was monitored using AlphaLISA® assays (Perkin Elmer, Waltham, MA). […] 9.8 ul of this protein mixture was then mixed with the compounds in the assay plate and incubated for one hour at room temperature. Reaction mixtures with no compounds added were included as negative controls, while a His-tagged and biotinylated GST protein was included to track general assay performance. […] The beads were then added to the assay plate sequentially with incubation at room temperature for 1-2 hours after each addition.

[2] = molecular target: DCAF15 (Homo sapiens, UniProt Q66K64); experiment: Binary interaction between compounds and DCAF15, HTRF competition assay; format: binding; conditions: HTRF competition with Alexa Fluor 647 tracer, His-tagged DCAF15 complex; read-out: DCAF15 IC50
Chain of DCAF15 (Q66K64 whole entry): as the sequence (Q66K64 whole entry) above
Chain of DCAF15 (Q16531 whole entry partner): as the sequence (Q16531 whole entry partner) above
Experimental: DCAF15 interactions with test compounds were monitored using HTRF competition assays (Cisbio, Bedford, MA). […] These two solutions were mixed and incubated for 15 min at room temperature. 9.8 ul of the tracer solution and 10 ul of the DCAF15/mAb Anti-6His-Eu cryptate Gold mixture were added sequentially to each well in the assay plate. Reaction mixtures with no DCAF15 added were included as […] controls. […] Binding was estimated based on ratiometric analysis and titration curves were generated in GraphPad Prism (7.00, GraphPad, La Jolla, CA).

SMILES | EC50 [1] [µM] | IC50 [2] [µM]
N#Cc1cc(S(=O)(=O)Nc2ccc(Cl)c3c(Cl)c[nH]c23)ccc1S(=O)(=O)N1CCNCC1 [Compound 43, 3-cyano-N-(3,4-dichloro-1H-indol-7-yl)-4-(piperazin-1-ylsulfonyl)benzenesulfonamide] | < 1 | < 5
COc1cccc(Oc2ccc(CNS(=O)(=O)c3ccc(S(=O)(=O)Nc4ccc(Cl)c5c(Cl)c[nH]c45)cc3)cn2)c1 [Compound 17, N^1-(3,4-dichloro-1H-indol-7-yl)-N^4-((6-(3-methoxyphenoxy)pyridin-3-yl)methyl)benzene-1,4-disulfonamide] | < 20 | < 20
Cc1ccc(CCNS(=O)(=O)c2ccc(S(=O)(=O)Nc3ccc(Cl)c4c(Cl)c[nH]c34)cc2)o1 [Compound 25, N^1-(3,4-dichloro-1H-indol-7-yl)-N4_ (2-(5-methylfuran-2-yl)ethyl)benzene-1,4-disulfonamide] | < 20 | < 20
O=S(=O)(Nc1ccc(Cl)c2c(Cl)c[nH]c12)c1ccc(S(=O)(=O)N2CCC(n3ccnn3)C2)cc1 (stereo not drawn) [Compound 36, 4-((3-(1H-1,2,3-triazol-1-yl)pyrrolidin-1-yl)sulfonyl)-N-(3,4-dichloro-1H-indol-7-yl)benzenesulfonamide] | < 5 | < 5
CC(C)(C)OC(=O)NC1(CNS(=O)(=O)c2ccc(S(=O)(=O)Nc3ccc(Cl)c4c(Cl)c[nH]c34)cc2)CC1 [Compound 9, tert-butyl (1-(((4-(N-(3,4-dichloro-1H-indol-7-yl)sulfamoyl)phenyl)sulfonamido)methyl)cyclopropyl) carbamate] | < 20 | < 20

More lines, now with the values ahead:

EC50 [1] [µM] | IC50 [2] [µM] | SMILES
< 5 | < 20 | CC(C)(C)OC(=O)N1CCC2(CC1)CN(S(=O)(=O)c1ccc(S(=O)(=O)Nc3ccc(Cl)c4c(Cl)c[nH]c34)cc1)CCO2 [Compound 55, tert-butyl 4-((4-(N-(3,4-dichloro-1H-indol-7-yl)sulfamoyl)phenyl)sulfonyl)-1-oxa-4,9-diazaspiro[5.5] undecane-9-carboxylate]
< 1 | < 5 | O=S(=O)(Nc1ccc(Cl)c2c(Cl)c[nH]c12)c1ccc(S(=O)(=O)N2CCNCC2)cc1F [Compound 44, N-(3,4-dichloro-1H-indol-7-yl)-2-fluoro-4-(piperazin-1-ylsulfonyl)benzenesulfonamide]
< 1 | < 5 | CCCC1CNCCN1S(=O)(=O)c1ccc(S(=O)(=O)Nc2ccc(Cl)c3c(Cl)c[nH]c23)cc1 (stereo not drawn) [Compound 47, N-(3,4-dichloro-1H-indol-7-yl)-4-((2-propylpiperazin-1-yl)sulfonyl)benzenesulfonamide]
< 1 | < 20 | Cc1ccc(NS(=O)(=O)c2ccc(S(=O)(=O)N3CCC(N(C)C)C3)cc2)c2[nH]cc(C#N)c12 (stereo not drawn) [Compound 80, N-(3-cyano-4-methyl-1H-indol-7-yl)-4-((3-(dimethylamino)pyrrolidine-1-yl)sulfonyl)benzenesulfonamide]
< 1 | < 5 | CCN=S(=O)(c1ccc(S(=O)(=O)Nc2ccc(Cl)c3c(Cl)c[nH]c23)cc1)C1CCNCC1 (stereo not drawn) [Compound 68, N-(3,4-dichloro-1H-indol-7-yl)-4-(N-ethylpiperidine-4-sulfonimidoyl)benzenesulfonamide]
< 5 | < 100 | N#Cc1cccc(S(=O)(=O)Nc2ccc(I)c3c(Cl)c[nH]c23)c1 [Compound 102, N-(3-chloro-4-iodo-1H-indol-7-yl)-3-cyanobenzenesulfonamide]
< 5 | < 5 | Cc1nc2c(n1C)CCN(S(=O)(=O)c1ccc(S(=O)(=O)Nc3ccc(Cl)c4c(Cl)c[nH]c34)cc1)C2 [Compound 53, N-(3,4-dichloro-1H-indol-7-yl)-4-((1,2-dimethyl-1,4,6,7-tetrahydro-5H-imidazo[4,5-c]pyridin-5-yl)sulfonyl)benzene sulfonamide]
